The target in one experiment is human cathepsin K (UniProt P43236). Nature of the experiment: Cathepsin K Assay (hrbCat K). Format: biochemical. The note with it: human cathepsin K 0.4 nM, Z-Leu-Arg-AMC 8 μM, pH 5.5, 15 min preincubation; read-out: hrbCat K IP. A digest of the protocol:
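Human cathepsin K (0.4 nM) in pH 5.5 MES buffer with EDTA, DTT and 10% DMSO was preincubated 15 min at room temperature with compound from a ⅓ dilution series (500-0.025 μM DMSO stocks). Z-Leu-Arg-AMC (8 μM) was then added, and AMC release was followed fluorometrically (Ex 360/Em 460 nm) for 30 min; inhibition was fitted to a dose-response model.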

The target of a further experiment is T1, human cathepsin F (Homo sapiens, UniProt Q9UBX1).
T1 sequence (Q9UBX1 271-484): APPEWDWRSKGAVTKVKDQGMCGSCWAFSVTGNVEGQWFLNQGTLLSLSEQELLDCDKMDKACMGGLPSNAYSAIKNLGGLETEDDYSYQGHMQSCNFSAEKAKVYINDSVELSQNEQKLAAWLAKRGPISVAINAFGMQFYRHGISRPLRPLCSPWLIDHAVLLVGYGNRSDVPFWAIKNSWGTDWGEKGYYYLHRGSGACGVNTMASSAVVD
Nature of the experiment: Cathepsin F assay (hCat F). Format: biochemical. Conditions: human cathepsin F 10 nM, Z-Phe-Arg-AMC 8 μM, pH 5.5, 15 min preincubation; read-out: hCat F IP. A digest of the protocol:
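Fluorogenic read-out: cleavage of Z-Phe-Arg-AMC (8 μM in added buffer) was followed at Ex 360/Em 460 nm for 20 min, with dose-response fitting of percent inhibition. Before substrate addition, 10 nM human enzyme was incubated 15 min at room temperature with compounds (DMSO stocks 500–0.025 μM) in pH 5.5 MES/EDTA/DTT buffer containing 10% DMSO.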

The structures appear in SMILES notation.

`N#CC1(NC(=O)[C@@H]2CCCC[C@H]2c2oc(-c3cccc(C4CC4)c3)nc2-c2ccc(N3CCS(=O)(=O)CC3)cc2)CC1` [Example 77, (1R,2R)-N-(1-cyanocyclopropyl)-2-(2-(3-cyclopropylphenyl)-4-(4-(1,1-dioxidothiomorpholino)phenyl)oxazol-5-yl)cyclohexanecarboxamide]: the results for the IC50 on human cathepsin K and on human cathepsin F were 0.65 nM and 533 nM, respectively.
The like results for `N#CC1(NC(=O)[C@@H]2CCCC[C@H]2c2oc(-c3nccs3)nc2-c2ccc(N3CCS(=O)(=O)CC3)cc2)CC1` [Example 78, (1R,2R)-N-(1-cyanocyclopropyl)-2-(4-(4-(1,1-dioxidothiomorpholino)phenyl)-2-(thiazol-2-yl)oxazol-5-yl)cyclohexanecarboxamide] were, in that order, 2.49 nM and 2650 nM.
For the compound `N#CC1(NC(=O)[C@@H]2CCCC[C@H]2c2oc(-c3ccccc3C3CC3)nc2-c2ccc(N3CCS(=O)(=O)CC3)cc2)CC1` [Example 79, (1R,2R)-N-(1-cyanocyclopropyl)-2-(2-(2-cyclopropylphenyl)-4-(4-(1,1-dioxidothiomorpholino)phenyl)oxazol-5-yl)cyclohexanecarboxamide], the IC50 stood at 0.51 nM at human cathepsin K and 124 nM on human cathepsin F.
Take `N#CC1(NC(=O)[C@@H]2CCCC[C@H]2c2oc(-c3ncccc3C(F)(F)F)nc2-c2ccc(N3CCS(=O)(=O)CC3)cc2)CC1` [Example 80, (1R,2R)-N-(1-cyanocyclopropyl)-2-(4-(4-(1,1-dioxidothiomorpholino)phenyl)-2-(3-(trifluoromethyl)pyridin-2-yl)oxazol-5-yl)cyclohexanecarboxamide]: the IC50 on human cathepsin K is 2.43 nM; on human cathepsin F it was 1490 nM.
The like results for `N#CC1(NC(=O)[C@@H]2CCCC[C@H]2c2oc(-c3ccc(C(F)(F)F)cn3)nc2-c2ccc(N3CCS(=O)(=O)CC3)cc2)CC1` [Example 81, (1R,2R)-N-(1-cyanocyclopropyl)-2-(4-(4-(1,1-dioxidothiomorpholino)phenyl)-2-(5-(trifluoromethyl)pyridin-2-yl)oxazol-5-yl)cyclohexanecarboxamide] were, in that order, 2.99 nM and 3060 nM.
As to `Cc1nccc(-c2nc(-c3ccc(N4CCS(=O)(=O)CC4)cc3)c([C@@H]3CCCC[C@H]3C(=O)NC3(C#N)CC3)o2)n1` [Example 82, (1R,2R)-N-(1-cyanocyclopropyl)-2-(4-(4-(1,1-dioxidothiomorpholino)phenyl)-2-(2-methylpyrimidin-4-yl)oxazol-5-yl)cyclohexanecarboxamide], the values for the IC50 on human cathepsin K and at human cathepsin F were 2.66 nM and 5140 nM, respectively.
Taken in the same sequence, the figures for `N#CC1(NC(=O)[C@@H]2CCCC[C@H]2c2oc(-c3cc(C(F)(F)F)ccn3)nc2-c2ccc(N3CCS(=O)(=O)CC3)cc2)CC1` [Example 83, (1R,2R)-N-(1-cyanocyclopropyl)-2-(4-(4-(1,1-dioxidothiomorpholino)phenyl)-2-(4-(trifluoromethyl)pyridin-2-yl)oxazol-5-yl)cyclohexanecarboxamide] were 1.3 nM and 4150 nM.
The like results for `N#CC1(NC(=O)[C@@H]2CCCC[C@H]2c2oc(-c3ncccc3F)nc2-c2ccc(N3CCS(=O)(=O)CC3)cc2)CC1` [Example 84, (1R,2R)-N-(1-cyanocyclopropyl)-2-(4-(4-(1,1-dioxidothiomorpholino)phenyl)-2-(3-fluoropyridin-2-yl)oxazol-5-yl)cyclohexanecarboxamide] were, in that order, 2.92 nM and 4230 nM.
The like results for `N#CC1(NC(=O)[C@@H]2CCCC[C@H]2c2oc(-c3cnc(C(F)(F)F)nc3)nc2-c2ccc(N3CCS(=O)(=O)CC3)cc2)CC1` [Example 85, (1R,2R)-N-(1-cyanocyclopropyl)-2-(4-(4-(1,1-dioxidothiomorpholino)phenyl)-2-(2-(trifluoromethyl)pyrimidin-5-yl)oxazol-5-yl)cyclohexanecarboxamide] were, in that order, 1.57 nM and 2520 nM.
With `N#CC1(NC(=O)[C@@H]2CCCC[C@H]2c2oc(-c3cccc(OC(F)(F)F)c3)nc2-c2ccc(N3CCS(=O)(=O)CC3)cc2)CC1` [Example 86, (1R,2R)-N-(1-cyanocyclopropyl)-2-(4-(4-(1,1-dioxidothiomorpholino)phenyl)-2-(3-(trifluoromethoxy)phenyl)oxazol-5-yl)cyclohexanecarboxamide], the IC50 amounted to 2.62 nM at human cathepsin K and 1830 nM at human cathepsin F.
Taken in the same sequence, the figures for `N#CC1(NC(=O)[C@@H]2CCCC[C@H]2c2oc(-c3cncc(C(F)(F)F)c3)nc2-c2ccc(N3CCS(=O)(=O)CC3)cc2)CC1` [Example 88, (1R,2R)-N-(1-cyanocyclopropyl)-2-(4-(4-(1,1-dioxidothiomorpholino)phenyl)-2-(5-(trifluoromethyl)pyridin-3-yl)oxazol-5-yl)cyclohexanecarboxamide] were 2.21 nM and 2380 nM.
`CC(C)(C)c1ccc(-c2nc(-c3ccc(N4CCS(=O)(=O)CC4)cc3)c([C@@H]3CCCC[C@H]3C(=O)NC3(C#N)CC3)o2)cc1` [Example 89, (1R,2R)-2-(2-(4-(tert-butyl)phenyl)-4-(4-(1,1-dioxidothiomorpholino)phenyl)oxazol-5-yl)-N-(1-cyanocyclopropyl) cyclohexanecarboxamide]: the values for the IC50 at human cathepsin K and on human cathepsin F were 1.35 nM and 819 nM, respectively.
Taken in the same sequence, the figures for `N#CC1(NC(=O)[C@@H]2CCCC[C@H]2c2oc(-c3ncccn3)nc2-c2ccc(N3CCS(=O)(=O)CC3)cc2)CC1` [Example 90, (1R,2R)-N-(1-cyanocyclopropyl)-2-(4-(4-(1,1-dioxidothiomorpholino)phenyl)-2-(pyrimidin-2-yl)oxazol-5-yl)cyclohexanecarboxamide] were 7.28 nM and not below 10000 nM.
Turning to `N#CC1(NC(=O)[C@@H]2CCCC[C@H]2c2oc(-c3ccc(OC(F)F)nc3)nc2-c2ccc(N3CCS(=O)(=O)CC3)cc2)CC1` [Example 91, (1R,2R)-N-(1-cyanocyclopropyl)-2-(2-(6-(difluoromethoxy)pyridin-3-yl)-4-(4-(1,1-dioxidothiomorpholino)phenyl)oxazol-5-yl)cyclohexanecarboxamide], the IC50 on human cathepsin K came to 1.3 nM; at human cathepsin F it was 1670 nM.
Consider `N#CC1(NC(=O)[C@@H]2CCCC[C@H]2c2oc(-c3cncc(N4CCS(=O)(=O)CC4)c3)nc2-c2ccc(N3CCS(=O)(=O)CC3)cc2)CC1` [Example 92, (1R,2R)-N-(1-cyanocyclopropyl)-2-(4-(4-(1,1-dioxidothiomorpholino)phenyl)-2-(5-(1,1-dioxidothiomorpholino)pyridin-3-yl)oxazol-5-yl)cyclohexanecarboxamide], for which the IC50 on human cathepsin K was 0.92 nM; at human cathepsin F, 803 nM.
On to `N#Cc1cccc(-c2nc(-c3ccc(N4CCS(=O)(=O)CC4)cc3)c([C@@H]3CCCC[C@H]3C(=O)NC3(C#N)CC3)o2)c1` [Example 93, (1R,2R)-N-(1-cyanocyclopropyl)-2-(2-(3-cyanophenyl)-4-(4-(1,1-dioxidothiomorpholino)phenyl)oxazol-5-yl)cyclohexanecarboxamide], for which the IC50 at human cathepsin K came to 1.89 nM; at human cathepsin F, 1100 nM.
The like results for `N#CC1(NC(=O)[C@@H]2CCCC[C@H]2c2oc(-c3ccc(Cl)cc3F)nc2-c2ccc(N3CCS(=O)(=O)CC3)cc2)CC1` [Example 94, (1R,2R)-2-(2-(4-chloro-2-fluorophenyl)-4-(4-(1,1-dioxidothiomorpholino)phenyl)oxazol-5-yl)-N-(1-cyanocyclopropyl) cyclohexanecarboxamide] were, in that order, 1.2 nM and 380 nM.
With `N#CC1(NC(=O)[C@@H]2CCCC[C@H]2c2oc(-c3cncc(Cl)c3)nc2-c2ccc(N3CCS(=O)(=O)CC3)cc2)CC1` [Example 95, (1R,2R)-2-(2-(5-chloropyridin-3-yl)-4-(4-(1,1-dioxidothiomorpholino)phenyl)oxazol-5-yl)-N-(1-cyanocyclopropyl) cyclohexanecarboxamide], the IC50 on human cathepsin K stood at 1.17 nM; on human cathepsin F it was 775 nM.
Taken in the same sequence, the figures for `N#CC1(NC(=O)[C@@H]2CCCC[C@H]2c2oc(-c3ccccc3OC(F)F)nc2-c2ccc(N3CCS(=O)(=O)CC3)cc2)CC1` [Example 96, (1R,2R)-N-(1-cyanocyclopropyl)-2-(2-(2-(difluoromethoxy)phenyl)-4-(4-(1,1-dioxidothiomorpholino)phenyl)oxazol-5-yl)cyclohexanecarboxamide] were 0.87 nM and 363 nM.
As for `N#CC1(NC(=O)[C@@H]2CCCC[C@H]2c2oc(-c3cccnn3)nc2-c2ccc(N3CCS(=O)(=O)CC3)cc2)CC1` [Example 97, (1R,2R)-N-(1-cyanocyclopropyl)-2-(4-(4-(1,1-dioxidothiomorpholino)phenyl)-2-(pyridazin-3-yl)oxazol-5-yl)cyclohexanecarboxamide], the IC50 on human cathepsin K amounted to 2.83 nM; on human cathepsin F, 2550 nM.
Taken in the same sequence, the figures for `N#CC1(NC(=O)[C@@H]2CCCC[C@H]2c2oc(C3C4CC3C4)nc2-c2ccc(N3CCS(=O)(=O)CC3)cc2)CC1` (stereo partly drawn) [Example 98, (1R,2R)-2-(2-(bicyclo[1.1.1]pentan-2-yl)-4-(4-(1,1-dioxidothiomorpholino)phenyl)oxazol-5-yl)-N-(1-cyanocyclopropyl) cyclohexanecarboxamide] were 1.43 nM and 2310 nM.

These data come from patent publication US9458181B2, “Cathepsin cysteine protease inhibitors” (Merck Sharp & Dohme Corp., priority 2013, dated 2016).
